Measured values as given in ChEMBL document CHEMBL1148445, “Synthesis of 2',5'-dideoxy-2-fluoroadenosine and 2',5'-dideoxy-2,5'-difluoroadenosine: potent P-site inhibitors of adenylyl cyclase” (J Med Chem, 2004).

Biological target: Adenylate cyclase type 5 (Rattus norvegicus, UniProt Q04400)
Assay: Compound was evaluated for inhibition of adenylate cyclase from rat brain
Assay type: tissue-based

Sequence of Adenylate cyclase type 5 (Q04400 whole entry): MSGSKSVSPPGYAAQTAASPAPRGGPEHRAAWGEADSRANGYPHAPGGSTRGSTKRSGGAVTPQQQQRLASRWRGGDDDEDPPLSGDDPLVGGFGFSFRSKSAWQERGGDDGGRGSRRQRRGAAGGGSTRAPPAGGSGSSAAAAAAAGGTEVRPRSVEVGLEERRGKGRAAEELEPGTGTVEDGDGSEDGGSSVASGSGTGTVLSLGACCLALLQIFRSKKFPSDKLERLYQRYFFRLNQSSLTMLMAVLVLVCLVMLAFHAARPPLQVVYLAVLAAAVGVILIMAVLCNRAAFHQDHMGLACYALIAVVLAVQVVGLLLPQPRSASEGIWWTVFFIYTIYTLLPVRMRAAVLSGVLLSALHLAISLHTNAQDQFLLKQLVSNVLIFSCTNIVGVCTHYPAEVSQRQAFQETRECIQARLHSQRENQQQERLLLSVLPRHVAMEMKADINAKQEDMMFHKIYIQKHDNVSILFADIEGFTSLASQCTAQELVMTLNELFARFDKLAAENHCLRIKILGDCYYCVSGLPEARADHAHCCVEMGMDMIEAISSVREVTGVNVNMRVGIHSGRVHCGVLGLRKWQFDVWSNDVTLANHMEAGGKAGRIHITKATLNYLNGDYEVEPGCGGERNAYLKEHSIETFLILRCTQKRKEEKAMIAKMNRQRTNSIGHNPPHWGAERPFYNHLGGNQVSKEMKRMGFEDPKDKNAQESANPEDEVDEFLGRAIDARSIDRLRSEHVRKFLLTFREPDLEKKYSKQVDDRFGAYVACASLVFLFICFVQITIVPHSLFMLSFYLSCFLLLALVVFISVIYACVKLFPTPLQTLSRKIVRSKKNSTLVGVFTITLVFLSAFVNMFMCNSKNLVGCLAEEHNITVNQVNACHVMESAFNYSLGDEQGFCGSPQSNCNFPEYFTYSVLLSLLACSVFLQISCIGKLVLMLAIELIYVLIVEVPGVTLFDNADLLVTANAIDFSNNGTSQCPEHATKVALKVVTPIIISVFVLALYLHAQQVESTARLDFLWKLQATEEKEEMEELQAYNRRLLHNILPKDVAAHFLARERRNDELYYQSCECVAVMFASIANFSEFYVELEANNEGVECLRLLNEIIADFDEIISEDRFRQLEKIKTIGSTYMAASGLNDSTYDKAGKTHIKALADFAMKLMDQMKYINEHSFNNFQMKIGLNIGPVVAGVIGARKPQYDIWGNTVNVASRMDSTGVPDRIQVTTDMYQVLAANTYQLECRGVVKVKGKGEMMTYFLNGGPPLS

Row | IC50 [µM] | SMILES
1 | 4.6 | Nc1nc(F)nc2c1ncn2[C@H]1C[C@H](O)[C@@H](CO)O1 (stereo in doubt; form 1)
2 | > 100 | C[C@H]1O[C@@H](n2cnc3c(N)nc(F)nc32)C[C@@H]1O (stereo in doubt; form 1)
3 | 29 | Nc1nc(F)nc2c1ncn2[C@H]1C[C@H](O)[C@@H](CF)O1 (stereo in doubt; form 1)
4 | > 100 | Nc1nc(F)nc2c1ncn2[C@H]1C[C@H](O)[C@@H](CO)O1 (stereo in doubt; form 2)
5 | 0.89 | C[C@H]1O[C@@H](n2cnc3c(N)nc(F)nc32)C[C@@H]1O (stereo in doubt; form 2)
6 | 0.98 | Nc1nc(F)nc2c1ncn2[C@H]1C[C@H](O)[C@@H](CF)O1 (stereo in doubt; form 2)
7 | > 300 | Nc1ncnc2c1ncn2[C@@H]1O[C@H](CO)[C@@H](O)[C@H]1O [ADENOSINE]
8 | 15 | Nc1ncnc2c1ncn2[C@H]1C[C@H](O)[C@@H](CO)O1 [DEOXYADENOSINE]
9 | 82 | Nc1ncnc2c1ncn2[C@@H]1O[C@H](CO)[C@@H](O)[C@@H]1O [VIDARABINE]

Row | SMILES | IC50 [µM]
10 | C[C@@H]1O[C@H](n2cnc3c(N)ncnc32)C[C@H]1O | 2.8
